In patent US10167262B2, “Herbicidal substituted 3-arylpyrazoles” (FMC CORPORATION, priority 2014, dated 2019):

Experiments:
Format in all cases: in vivo
[1] = test system: morningglory (Ipomoea spp.); test: Test A pre-/postemergence greenhouse herbicide test, visual injury rating 0-100
In short: (§1)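 Seeds planted in loam-sand blend; preemergence directed soil spray and postemergence spray at 2–10 cm, one- to two-leaf stage, compounds formulated in non-phytotoxic solvent with surfactant. After about 10 days in greenhouse, injury rated visually against untreated controls, 0 (no effect) to 100 (complete control).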

[2] = test system: giant foxtail (Setaria faberii); test: as above
In short: as §1

[3] = test system: pigweed (Amaranthus retroflexus); test: as above
In short: as §1

[4] = test system: wheat (Triticum aestivum); test: as above
In short: as §1

[5] = test system: velvetleaf (Abutilon theophrasti); test: as above
In short: as §1

[6] = test system: large (Lg) crabgrass (Digitaria sanguinalis); test: as above
In short: as §1

[7] = test system: barnyardgrass (Echinochloa crus-galli); test: as above
In short: as §1

[8] = test system: corn (Zea mays); test: as above
In short: as §1

[9] = test system: barnyardgrass (Echinochloa crus-galli); test: Test B flooded paddy test, plant response rating 0-100; settings: Flood, 250 g ai/ha; scale 0 to 100 (0 no effect, 100 complete control); 13 to 15 days
Description: (§2) At time of treatment, test pots were flooded to 3 cm above the soil surface, treated by application of test compounds directly to the paddy water, and then maintained at that water depth for the duration of the test. Treated plants and controls were maintained in a greenhouse for 13 to 15 days, after which time all species were compared to controls and visually evaluated. […] A dash (-) response means no test result.

[10] = test system: ducksalad (Heteranthera limosa); test: as above; settings: Flood, 250 g ai/ha; scale 0 to 100 (0 no effect, 100 complete control); 13 to 15 days
Description: as §2

[11] = test system: sedge, umbrella (small-flower umbrella sedge, Cyperus difformis); test: as above; settings: Flood, 250 g ai/ha; scale 0 to 100 (0 no effect, 100 complete control); 13 to 15 days
Description: as §2

[12] = test system: rice (Oryza sativa); test: as above; settings: Flood, 250 g ai/ha; scale 0 to 100 (0 no effect, 100 complete control); 13 to 15 days
Description: as §2

SMILES | Plant response rating (0 to 100 scale), Morningglory ([1]; Postemergence, 125 g ai/ha) | Plant response rating (0 to 100 scale), Morningglory ([1]; Postemergence, 500 g ai/ha) | Morningglory plant response rating (0 = no effect, 100 = complete control) ([1]; Preemergence, 125 g ai/ha) | Plant response rating (0 to 100 scale), Morningglory ([1]; Preemergence, 500 g ai/ha) | Plant response rating (0 to 100 scale), Foxtail, Giant ([2]; Postemergence, 125 g ai/ha) | Plant response rating (0 to 100 scale), Foxtail, Giant ([2]; Postemergence, 500 g ai/ha) | Foxtail, Giant plant response rating (0 = no effect, 100 = complete control) ([2]; Preemergence, 125 g ai/ha) | Plant response rating (0 to 100 scale), Foxtail, Giant ([2]; Preemergence, 500 g ai/ha) | Plant response rating (0 to 100 scale), Pigweed ([3]; Postemergence, 125 g ai/ha) | Plant response rating (0 to 100 scale), Pigweed ([3]; Postemergence, 500 g ai/ha) | Pigweed plant response rating (0 = no effect, 100 = complete control) ([3]; Preemergence, 125 g ai/ha) | Plant response rating (0 to 100 scale), Pigweed ([3]; Preemergence, 500 g ai/ha) | Plant response rating (0 to 100 scale), Wheat ([4]; Postemergence, 125 g ai/ha) | Plant response rating (0 to 100 scale), Wheat ([4]; Postemergence, 500 g ai/ha) | Wheat plant response rating (0 = no effect, 100 = complete control) ([4]; Preemergence, 125 g ai/ha) | Plant response rating (0 to 100 scale), Wheat ([4]; Preemergence, 500 g ai/ha) | Plant response rating (0 to 100 scale), Velvetleaf ([5]; Postemergence, 125 g ai/ha) | Plant response rating (0 to 100 scale), Velvetleaf ([5]; Postemergence, 500 g ai/ha) | Velvetleaf plant response rating (0 = no effect, 100 = complete control) ([5]; Preemergence, 125 g ai/ha) | Plant response rating (0 to 100 scale), Velvetleaf ([5]; Preemergence, 500 g ai/ha) | also measured
ON=C(c1cccnc1)c1c[nH]nc1-c1cc(Cl)cc(Cl)c1 [Compound 5] | 0 | 0 | 0 | 0 | 0 | 0 | 0 | 0 | 0 | 0 | 0 | 20 | 0 | 0 | 0 | 0 | 0 | 0 | 0 | 0 | Plant response rating (0 to 100 scale), Crabgrass, Large ([6]; Postemergence, 125 g ai/ha): 0; Plant response rating (0 to 100 scale), Crabgrass, Large ([6]; Postemergence, 500 g ai/ha): 0; Crabgrass, Large plant response rating (0 = no effect, 100 = complete control) ([6]; Preemergence, 125 g ai/ha): 0; Plant response rating (0 to 100 scale), Crabgrass, Large ([6]; Preemergence, 500 g ai/ha): 0; Plant response rating (0 to 100 scale), Barnyardgrass ([7]; Postemergence, 125 g ai/ha): 0; Plant response rating (0 to 100 scale), Barnyardgrass ([7]; Postemergence, 500 g ai/ha): 0; Barnyardgrass plant response rating (0 = no effect, 100 = complete control) ([7]; Preemergence, 125 g ai/ha): 0; Plant response rating (0 to 100 scale), Barnyardgrass ([7]; Preemergence, 500 g ai/ha): 0; Corn plant response rating (0 = no effect, 100 = complete control) ([8]; Preemergence, 125 g ai/ha): 0; Plant response rating (0 to 100 scale), Corn ([8]; Preemergence, 500 g ai/ha): 0; Plant response rating, Barnyardgrass [9]: 0; Plant response rating, Ducksalad [10]: 0; Plant response rating, Sedge, Umbrella [11]: 0; Plant response rating, Rice [12]: 0
Cn1cc(C(=O)c2cccnc2)c(-c2cc(Cl)cc(Cl)c2)n1 [Compound 6] | 0 | 0 | 0 | 0 | 0 | 0 | 0 | 0 | 0 | 30 | 0 | 20 | 0 | 0 | 0 | 0 | 10 | 10 | 0 | 20 | Plant response rating (0 to 100 scale), Crabgrass, Large ([6]; Postemergence, 125 g ai/ha): 0; Plant response rating (0 to 100 scale), Crabgrass, Large ([6]; Postemergence, 500 g ai/ha): 0; Crabgrass, Large plant response rating (0 = no effect, 100 = complete control) ([6]; Preemergence, 125 g ai/ha): 0; Plant response rating (0 to 100 scale), Crabgrass, Large ([6]; Preemergence, 500 g ai/ha): 0; Plant response rating (0 to 100 scale), Barnyardgrass ([7]; Postemergence, 125 g ai/ha): 0; Plant response rating (0 to 100 scale), Barnyardgrass ([7]; Postemergence, 500 g ai/ha): 0; Barnyardgrass plant response rating (0 = no effect, 100 = complete control) ([7]; Preemergence, 125 g ai/ha): 0; Plant response rating (0 to 100 scale), Barnyardgrass ([7]; Preemergence, 500 g ai/ha): 0; Plant response rating (0 to 100 scale), Corn ([8]; Postemergence, 125 g ai/ha): 0; Plant response rating (0 to 100 scale), Corn ([8]; Postemergence, 500 g ai/ha): 0; Corn plant response rating (0 = no effect, 100 = complete control) ([8]; Preemergence, 125 g ai/ha): 0; Plant response rating (0 to 100 scale), Corn ([8]; Preemergence, 500 g ai/ha): 0; Plant response rating, Barnyardgrass [9]: 0; Plant response rating, Ducksalad [10]: 0; Plant response rating, Sedge, Umbrella [11]: 0; Plant response rating, Rice [12]: 0
CCn1cc(C(=O)c2cccnc2)c(-c2cc(Cl)cc(Cl)c2)n1 [Compound 7] | 0 | 0 | 0 | 0 | 0 | 0 | 0 | 0 | 40 | 70 | 20 | 60 | 0 | 0 | 0 | 0 | 50 | 70 | 0 | 50 | Plant response rating (0 to 100 scale), Crabgrass, Large ([6]; Postemergence, 125 g ai/ha): 0; Plant response rating (0 to 100 scale), Crabgrass, Large ([6]; Postemergence, 500 g ai/ha): 0; Crabgrass, Large plant response rating (0 = no effect, 100 = complete control) ([6]; Preemergence, 125 g ai/ha): 0; Plant response rating (0 to 100 scale), Crabgrass, Large ([6]; Preemergence, 500 g ai/ha): 0; Plant response rating (0 to 100 scale), Barnyardgrass ([7]; Postemergence, 125 g ai/ha): 0; Plant response rating (0 to 100 scale), Barnyardgrass ([7]; Postemergence, 500 g ai/ha): 0; Barnyardgrass plant response rating (0 = no effect, 100 = complete control) ([7]; Preemergence, 125 g ai/ha): 0; Plant response rating (0 to 100 scale), Barnyardgrass ([7]; Preemergence, 500 g ai/ha): 0; Plant response rating (0 to 100 scale), Corn ([8]; Postemergence, 125 g ai/ha): 0; Plant response rating (0 to 100 scale), Corn ([8]; Postemergence, 500 g ai/ha): 0; Corn plant response rating (0 = no effect, 100 = complete control) ([8]; Preemergence, 125 g ai/ha): 0; Plant response rating (0 to 100 scale), Corn ([8]; Preemergence, 500 g ai/ha): 0; Plant response rating, Barnyardgrass [9]: 0; Plant response rating, Ducksalad [10]: 0; Plant response rating, Sedge, Umbrella [11]: 0; Plant response rating, Rice [12]: 0
C=CCn1cc(C(=O)c2cccnc2)c(-c2cc(Cl)cc(Cl)c2)n1 [Compound 8] | 0 | 0 | 0 | 0 | 0 | 0 | 0 | 0 | 30 | 60 | 0 | 50 | 0 | 0 | 0 | 0 | 10 | 30 | 0 | 0 | Plant response rating (0 to 100 scale), Crabgrass, Large ([6]; Postemergence, 125 g ai/ha): 0; Plant response rating (0 to 100 scale), Crabgrass, Large ([6]; Postemergence, 500 g ai/ha): 0; Crabgrass, Large plant response rating (0 = no effect, 100 = complete control) ([6]; Preemergence, 125 g ai/ha): 0; Plant response rating (0 to 100 scale), Crabgrass, Large ([6]; Preemergence, 500 g ai/ha): 0; Plant response rating (0 to 100 scale), Barnyardgrass ([7]; Postemergence, 125 g ai/ha): 0; Plant response rating (0 to 100 scale), Barnyardgrass ([7]; Postemergence, 500 g ai/ha): 0; Barnyardgrass plant response rating (0 = no effect, 100 = complete control) ([7]; Preemergence, 125 g ai/ha): 0; Plant response rating (0 to 100 scale), Barnyardgrass ([7]; Preemergence, 500 g ai/ha): 0; Plant response rating (0 to 100 scale), Corn ([8]; Postemergence, 125 g ai/ha): 0; Plant response rating (0 to 100 scale), Corn ([8]; Postemergence, 500 g ai/ha): 0; Corn plant response rating (0 = no effect, 100 = complete control) ([8]; Preemergence, 125 g ai/ha): 0; Plant response rating (0 to 100 scale), Corn ([8]; Preemergence, 500 g ai/ha): 0; Plant response rating, Barnyardgrass [9]: 0; Plant response rating, Ducksalad [10]: 0; Plant response rating, Sedge, Umbrella [11]: 0; Plant response rating, Rice [12]: 0
C#CCn1cc(C(=O)c2cccnc2)c(-c2cc(Cl)cc(Cl)c2)n1 [Compound 9] | 0 | 0 | 0 | 0 | 0 | 0 | 0 | 20 | 60 | 80 | 60 | 90 | 0 | 0 | 0 | 0 | 50 | 60 | 0 | 80 | Plant response rating (0 to 100 scale), Crabgrass, Large ([6]; Postemergence, 125 g ai/ha): 0; Plant response rating (0 to 100 scale), Crabgrass, Large ([6]; Postemergence, 500 g ai/ha): 0; Crabgrass, Large plant response rating (0 = no effect, 100 = complete control) ([6]; Preemergence, 125 g ai/ha): 0; Plant response rating (0 to 100 scale), Crabgrass, Large ([6]; Preemergence, 500 g ai/ha): 10; Plant response rating (0 to 100 scale), Barnyardgrass ([7]; Postemergence, 125 g ai/ha): 0; Plant response rating (0 to 100 scale), Barnyardgrass ([7]; Postemergence, 500 g ai/ha): 10; Barnyardgrass plant response rating (0 = no effect, 100 = complete control) ([7]; Preemergence, 125 g ai/ha): 0; Plant response rating (0 to 100 scale), Barnyardgrass ([7]; Preemergence, 500 g ai/ha): 0; Corn plant response rating (0 = no effect, 100 = complete control) ([8]; Preemergence, 125 g ai/ha): 0; Plant response rating (0 to 100 scale), Corn ([8]; Preemergence, 500 g ai/ha): 0; Plant response rating, Barnyardgrass [9]: 0; Plant response rating, Ducksalad [10]: 0; Plant response rating, Sedge, Umbrella [11]: 0; Plant response rating, Rice [12]: 0
